One data set addresses T1, UGT1A1 (Homo sapiens, UniProt P22309).
T1 sequence (P22309 26-533): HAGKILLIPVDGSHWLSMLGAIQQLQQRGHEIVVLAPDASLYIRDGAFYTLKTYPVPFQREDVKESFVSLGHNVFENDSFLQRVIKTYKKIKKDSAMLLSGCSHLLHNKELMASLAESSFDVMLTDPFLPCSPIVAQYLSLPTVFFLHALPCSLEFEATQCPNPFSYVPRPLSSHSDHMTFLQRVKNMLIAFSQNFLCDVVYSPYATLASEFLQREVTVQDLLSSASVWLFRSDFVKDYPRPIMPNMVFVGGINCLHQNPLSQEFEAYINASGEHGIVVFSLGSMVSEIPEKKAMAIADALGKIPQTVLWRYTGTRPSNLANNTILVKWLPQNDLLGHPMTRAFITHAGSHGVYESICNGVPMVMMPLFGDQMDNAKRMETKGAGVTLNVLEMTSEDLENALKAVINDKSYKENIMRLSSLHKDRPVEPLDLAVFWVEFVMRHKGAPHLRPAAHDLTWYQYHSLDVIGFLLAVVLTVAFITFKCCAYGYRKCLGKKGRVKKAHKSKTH
Kind of data set: DDI perpetrator study: dolutegravir probe. The data set is classed as in vivo. Conditions: human, plasma, oral, 50 mg; for AUC: dolutegravir, probe alone (day 1), geometric mean.

Another data set deals with CYP3A4. Kind of data set: clinical. The conditions noted are these: human, plasma, oral; for AUC: geometric mean.
The target in another data set is T2, CYP2C8 (Homo sapiens, UniProt P10632).
T2 sequence (P10632 1-490): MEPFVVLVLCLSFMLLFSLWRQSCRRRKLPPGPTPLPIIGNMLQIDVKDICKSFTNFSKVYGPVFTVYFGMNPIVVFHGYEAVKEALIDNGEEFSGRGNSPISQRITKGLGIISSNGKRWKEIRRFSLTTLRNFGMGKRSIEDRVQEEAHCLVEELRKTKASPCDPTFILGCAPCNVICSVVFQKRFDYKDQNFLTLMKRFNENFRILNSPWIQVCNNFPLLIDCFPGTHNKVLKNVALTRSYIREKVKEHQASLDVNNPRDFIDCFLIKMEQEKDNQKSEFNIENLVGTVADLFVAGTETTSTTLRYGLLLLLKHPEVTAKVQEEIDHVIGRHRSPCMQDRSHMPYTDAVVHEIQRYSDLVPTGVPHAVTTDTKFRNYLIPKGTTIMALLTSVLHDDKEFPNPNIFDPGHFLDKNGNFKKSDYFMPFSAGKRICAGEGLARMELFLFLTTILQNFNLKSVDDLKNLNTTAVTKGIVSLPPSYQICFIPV
Kind of data set: DDI perpetrator study: repaglinide probe. The data set is classed as in vivo. The conditions noted are these: human, plasma, oral, 0.5 mg; for AUC: repaglinide, probe alone (day 1), geometric mean.

Another data set deals with T3, BCRP (Homo sapiens, UniProt Q9UNQ0).
T3 sequence (Q9UNQ0 1-655): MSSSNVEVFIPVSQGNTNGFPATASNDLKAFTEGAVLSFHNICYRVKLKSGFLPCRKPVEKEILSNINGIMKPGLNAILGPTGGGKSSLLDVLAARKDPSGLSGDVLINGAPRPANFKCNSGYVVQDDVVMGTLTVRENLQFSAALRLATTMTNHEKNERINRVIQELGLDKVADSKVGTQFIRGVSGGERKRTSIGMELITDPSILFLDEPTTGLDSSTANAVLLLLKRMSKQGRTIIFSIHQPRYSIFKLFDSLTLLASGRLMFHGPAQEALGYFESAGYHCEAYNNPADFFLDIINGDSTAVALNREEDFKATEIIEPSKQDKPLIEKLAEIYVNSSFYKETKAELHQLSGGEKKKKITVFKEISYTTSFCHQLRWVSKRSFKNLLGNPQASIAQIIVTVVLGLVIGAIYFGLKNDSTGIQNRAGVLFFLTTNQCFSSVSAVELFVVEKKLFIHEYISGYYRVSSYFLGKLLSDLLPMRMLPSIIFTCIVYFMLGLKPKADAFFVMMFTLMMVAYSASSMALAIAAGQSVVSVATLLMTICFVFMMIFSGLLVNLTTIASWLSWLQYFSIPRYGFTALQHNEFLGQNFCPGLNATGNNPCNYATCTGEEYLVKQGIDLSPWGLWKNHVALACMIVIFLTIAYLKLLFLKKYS
Kind of data set: DDI perpetrator study: rosuvastatin probe. The data set is classed as in vivo. Conditions: human, plasma, oral, 10 mg; for AUC: rosuvastatin, probe alone (day 1), geometric mean.

From paper PMC12709667 (Journal of Clinical Pharmacology, 2025) come the findings set out here.

Molecules are shown by their SMILES.

In general, Cmax refers to the highest concentration seen after dosing. In general, AUC refers to concentration integrated over time. For the compound `C[C@@H]1CCO[C@H]2Cn3cc(C(=O)NCc4ccc(F)cc4F)c(=O)c(O)c3C(=O)N12` [Dolutegravir], the peak level on UGT1A1 (Cmax) was 2590 ng/mL. The AUC on UGT1A1 (AUC0‐inf) is 46300 ng·h/mL; at UGT1A1 (AUC0‐last), 44600 ng·h/mL.
Consider `Cc1ncc2n1-c1ccc(Cl)cc1C(c1ccccc1F)=NC2` [Midazolam], for which, in the data set on CYP3A4 (2.5 mg), the highest level (Cmax) was 8.42 ng/mL. In addition, the AUC in the data set on CYP3A4 (2.5 mg, AUC0‐inf, midazolam, probe alone (day 1)) was found to be 39.5 ng·h/mL; with CYP3A4 (2.5 mg, AUC0‐last, midazolam, probe alone (day 1)), 37.5 ng·h/mL; in the data set on CYP3A4 (AUC0‐inf, midazolam + miricorilant (day 10)), 34.7 ng·h/mL.
On to `CCOc1cc(CC(=O)N[C@@H](CC(C)C)c2ccccc2N2CCCCC2)ccc1C(=O)O` [Repaglinide], for which, at CYP2C8, the concentration peaked (Cmax) at 2.94 ng/mL. For the same compound, the AUC at CYP2C8 (AUC0‐inf) is 7.27 ng·h/mL; at CYP2C8 (AUC0‐last), 6.68 ng·h/mL.
At BCRP, `CC(C)c1nc(N(C)S(C)(=O)=O)nc(-c2ccc(F)cc2)c1/C=C/[C@@H](O)C[C@@H](O)CC(=O)O` [Rosuvastatin] had a Cmax of 2.35 ng/mL. The AUC on BCRP (AUC0‐inf) was found to be 20.7 ng·h/mL; on BCRP (AUC0‐last), 17.1 ng·h/mL.
